Experimental data reported in patent US8309545B2, “Benzofuran potassium channel blockers and uses thereof” (Bionomics Limited, priority 2006, dated 2012).
pEC50: −log10 of the molar value.

Biological target: T1, human Kv1.3 ion channel (Homo sapiens, UniProt P22001)
T1 construct: Human Jurkat cells (which endogenously express hKv1.3) were used in place of rat L929 cells; endogenous in cells; host or cells: Human Jurkat cells
Assay: Inhibition of Kv1.3 currents, planar patch clamp in Jurkat cells
Type: cell-based
Conditions: Human Jurkat cells (endogenous hKv1.3), averaged dose response data from 3 or more cells
Experimental: Potency of compounds to inhibit the human Kv1.3 ion channel were determined as follows:
EC50 values for inhibition of Kv1.3 currents were determined by the method according to Schmitz et al (2005) Molecular Pharmacology 68, 1254-1270 with the following differences: • 1. Human Jurkat cells (which endogenously express hKv1.3) were used in place of rat L929 cells. • 2. All electrophysiology was performed using planar patch clamp (Port-A-Patch, Nanion Technologies Gmbh, Munich) in contrast to conventional patch clamp. • 3. EC50 values shown were determined from averaged dose response data obtained from 3 or more cells.

T1 sequence (P22001 whole entry): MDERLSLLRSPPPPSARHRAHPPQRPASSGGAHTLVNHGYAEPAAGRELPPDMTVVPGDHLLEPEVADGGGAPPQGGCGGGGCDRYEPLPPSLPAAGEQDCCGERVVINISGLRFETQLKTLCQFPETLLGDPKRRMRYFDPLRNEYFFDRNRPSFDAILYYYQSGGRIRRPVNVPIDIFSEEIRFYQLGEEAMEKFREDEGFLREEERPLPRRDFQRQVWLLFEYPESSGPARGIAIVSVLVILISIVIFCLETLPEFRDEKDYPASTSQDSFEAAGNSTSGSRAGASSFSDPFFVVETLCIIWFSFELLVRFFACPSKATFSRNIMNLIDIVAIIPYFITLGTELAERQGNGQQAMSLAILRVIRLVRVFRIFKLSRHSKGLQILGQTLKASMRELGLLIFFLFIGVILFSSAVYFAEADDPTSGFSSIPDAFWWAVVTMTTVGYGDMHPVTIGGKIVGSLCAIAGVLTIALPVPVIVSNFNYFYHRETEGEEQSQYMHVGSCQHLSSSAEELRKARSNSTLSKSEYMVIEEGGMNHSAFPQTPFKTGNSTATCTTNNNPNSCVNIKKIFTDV

Structure (SMILES) | pEC50
CC(=O)c1c(OCCN2CCOCC2)c(OCCC(C)(C)c2ccccc2)c2occc2c1C (racemic) [Example 46b, rac-1-[4-Methyl-7-(3-methyl-3-phenyl-butoxy)-6-(2-morpholin-4-yl-ethoxy)-benzofuran-5-yl]ethanone] | 6.70
COc1c2occc2c(C)c2c(=O)cc(C)oc12 [4 a)] | 6.10
COc1c(OCCCc2ccccc2)c(C(C)=O)c(C)c2ccoc12 [4 c)] | 6.65
COc1c(C(C)=O)c(OCCOc2ccccc2)c(OC)c2occc12 [5 b)] | 6.06
COc1c(C(C)=O)c(OCCCOc2ccccc2)c(OC)c2occc12 [6 b)] | 6.14
COc1c(C(C)=O)c(OCCCc2ccccc2)c(CN(C)C)c2occc12 [13 b)] | 6.32
COc1c(C(C)=O)c(OCCCCOc2ccccc2)c(OCCN2CCOCC2)c2occc12 [14 c)] | 6.04
COc1c(C(C)=O)c(OCCN(C)C)c(OCCCc2ccccc2)c2occc12 [15 b)] | 6.80
Cc1cc(=O)c2c(C)c3ccoc3c(OCCCc3ccccc3)c2o1 [18 a)] | 6.94
CC(=O)c1c(OCCN(C)C)c(OCCCc2ccccc2)c2occc2c1C [18 c)] | 6.38
CC(=O)c1c(OCCn2ccnc2)c(OCCCc2ccccc2)c2occc2c1C [20 b)] | 7.17
CC(=O)c1c(OCCn2nnc(N)n2)c(OCCCc2ccccc2)c2occc2c1C [21 a)] | 7.64
CC(=O)c1c(OCCn2nnnc2N)c(OCCCc2ccccc2)c2occc2c1C [21 b)] | 6.80
CC(=O)c1cc2ccoc2c(OCCCc2ccccc2)c1OCCN1CCOCC1 [22 c)] | 6.21
CC(=O)c1c(OCCN2CCOCC2)cc2occc2c1OCCCCOc1ccccc1 [23 d)] | 6.76
CC(=O)c1c(OCCCCN2CCOCC2)c(OCCCc2ccccc2)c2occc2c1C [28 b)] | 6.19
COc1c(C(C)=O)c(OCCCc2ccccc2)c(OC)c2occc12 [Example 1, 5-Acetyl-4,7-dimethoxy-6-(3-(phenyl)propoxy)benzofuran] | 6.54
COc1c(C(C)=O)c(OCCCCOc2ccccc2)c(OC)c2occc12 [Example 2] | 6.38
CC(=O)c1cc2ccoc2cc1OCCCc1ccccc1 [Example 3, 5-Acetyl-6-(3-phenylpropoxy)benzofuran] | 6.74
COc1c(C(C)=O)c(OCCSc2ccccc2)c(OC)c2occc12 [Example 7, 5-Acetyl-4,7-dimethoxy-6-(2-(thiophenoxy)ethoxy)benzofuran] | 6.17
COc1c(C(C)=O)c(OCCCSc2ccccc2)c(OC)c2occc12 [Example 8, 5-Acetyl-4,7-dimethoxy-6-(3-(phenylthio)propoxy)benzofuran] | 6.12
COc1c(C(C)=O)c(OCCS(=O)(=O)c2ccccc2)c(OC)c2occc12 [Example 9, 5-Acetyl-4,7-dimethoxy-6-(2-(benzenesulfonyl)ethoxy)benzofuran] | 5.62
CCOC(=O)CC(=O)c1c(OCCN2CCOCC2)cc2occc2c1OCCCCOc1ccccc1 [Example 24, 3-[6-(2-Morpholin-4-ylethoxy)-4-(4-phenoxybutoxy)benzofuran-5-yl]-3-oxo-propionic acid ethyl ester] | 6.23
CC(=O)c1c(OCCN(C)C)cc2occc2c1OCCCCOc1ccccc1 [Example 25, 5-Acetyl-6-(2-dimethylamino-ethoxy)-4-(4-phenoxybutoxy)benzofuran] | 6.22
CC(=O)c1c(OCCCCn2ccnc2)c(OCCCc2ccccc2)c2occc2c1C [Example 30, 5-Acetyl-6-(4-imidazol-1-yl-butoxy)-4-methyl-7-(3-phenylpropoxy)-benzofuran] | 6.92

Results, then the molecule that gave them:

pEC50 | Structure (SMILES)
6.78 | Cc1cc(=O)c2c(C)c3ccoc3c(OC[C@H]3C[C@@H]3c3ccccc3)c2o1 (racemic) [Example 58a, rac-4,7-Dimethyl-9-(1S,2S-2-phenyl-cyclopropylmethoxy)-furo[3,2-g]chromen-5-one]
6.29 | CC(=O)c1c(O)c(OC[C@H]2C[C@@H]2c2ccccc2)c2occc2c1C (racemic) [Example 58b, rac-1-[6-Hydroxy-4-methyl-7-(1S,2S-2-phenyl-cyclopropylmethoxy)-benzofuran-5-yl]-ethanone]
6.67 | Cc1cc(=O)c2c(C)c3ccoc3c(OC[C@H]3C[C@H]3c3ccccc3)c2o1 (racemic) [Example 59a, rac-4,7-Dimethyl-9-(1S,2R-2-phenyl-cyclopropylmethoxy)-furo[3,2-g]chromen-5-one]
5.82 | COc1c(C(C)=O)c(OCCCS(=O)(=O)c2ccccc2)c(OC)c2occc12 [Example 10, 5-Acetyl-4,7-dimethoxy-6-(3-(benzenesulfonyl)propoxy)benzofuran]
6.01 | COc1c(C(C)=O)c(OCCNc2ccccc2)c(OC)c2occc12 [Example 11, 5-Acetyl-4,7-dimethoxy-6-(2-(phenylamino)ethoxy)benzofuran]
6.16 | COc1c(C(C)=O)c(OCCCNc2ccccc2)c(OC)c2occc12 [Example 12, 5-Acetyl-4,7-dimethoxy-6-(3-(phenylamino)propoxy)benzofuran]
6.96 | COc1c(C(C)=O)c(OCCN2CCOCC2)c(OCCCc2ccccc2)c2occc12 [Example 16, 5-Acetyl-6-(2-morpholinoethoxy)-4-methoxy-7-(3-phenylpropoxy)benzofuran]
7.09 | COc1c(C(C)=O)c(OCCn2ccnc2)c(OCCCc2ccccc2)c2occc12 [Example 17, 5-Acetyl-6-(2-imidazol-1-ylethoxy)-4-methoxy-7-(3-phenylpropoxy)benzofuran]
7.29 | CC(=O)c1c(OCCN2CCOCC2)c(OCCCc2ccccc2)c2occc2c1C [Example 19, 5-Acetyl-6-(2-morpholinoethoxy)-4-methyl-7-(3-phenylpropoxy)benzofuran]
6.85 | CC(=O)c1c(OCCN2CCN(C)CC2)c(OCCCc2ccccc2)c2occc2c1C [Example 26]
6.87 | CC(=O)c1c(OCCCn2ccnc2)c(OCCCc2ccccc2)c2occc2c1C [Example 29, 5-Acetyl-6-(3-imidazol-1-yl-propoxy)-4-methyl-7-(3-phenylpropoxy)-benzofuran]
7.09 | CC(=O)c1c(OCCOc2cnccn2)c(OCCCc2ccccc2)c2occc2c1C [Example 31b, 1-{4-Methyl-7-(3-phenyl-propoxy)-6-[2-(pyrazin-2-yloxy)-ethoxy]-benzofuran-5-yl}-ethanone]
7.31 | CC(=O)c1c(OCCNC2CCCC2)c(OCCCc2ccccc2)c2occc2c1C [Example 32, 1-[6-(2-Cyclopentylamino-ethoxy)-4-methyl-7-(3-phenyl-propoxy)-benzofuran-5-yl]-ethanone]
6.46 | CC(=O)c1c(OCCN2CCCCC2)c(OCCCc2ccccc2)c2occc2c1C [Example 33, 1-[4-Methyl-7-(3-phenyl-propoxy)-6-(2-piperidin-1-yl-ethoxy)-benzofuran-5-yl]-ethanone]
6.65 | CC(=O)c1c(OCCN2CCCC2)c(OCCCc2ccccc2)c2occc2c1C [Example 34, 1-[4-Methyl-7-(3-phenyl-propoxy)-6-(2-pyrrolidin-1-yl-ethoxy)-benzofuran-5-yl]-ethanone]
7.00 | CC(=O)c1c(OCCn2nccn2)c(OCCCc2ccccc2)c2occc2c1C [Example 35, 1-[4-Methyl-7-(3-phenyl-propoxy)-6-(2-[1,2,3]triazol-2-yl-ethoxy)-benzofuran-5-yl]ethanone]
